Laboratory results as given in paper PMC6197744, “Triazolo[4,5-d]pyrimidines as Validated General Control Nonderepressible 2 (GCN2) Protein Kinase Inhibitors Reduce Growth of Leukemia Cells” (Computational and Structural Biotechnology Journal, 2018).

Experiments:
Experiment in all cases: NCI-60 one-dose screen
Format in all cases: cell-based
MOLT-4 = conditions: Homo sapiens; Leukemia MOLT-4, 10 μM, 48 h; read-out: Percent growth inhibition
Experimental: (§1) Compounds 1 and 2 were submitted to the National Cancer Institute NCI-60 Tumor Cell Screening Program (NCI number 800,700 and 800,701, respectively) for evaluation against the 60 cell line NCI panel at a single dose of 10 μM. […] Leukemia and breast cancer cell lines comprised the only cancer groups that were uniformly sensitive to both 1 and 2, with the greatest sensitivity seen in the leukemia SR cell line.
(§2) Compounds 1 and 2 were submitted to the NCI for growth inhibition screening against its panel of 60 cancer cell lines. The NCI screening protocol has extensively been described [[53], [54], [55], [56]]. Briefly, cancerous cell lines were grown in RPMI 1640 medium containing 5% fetal bovine serum and 2 mM L-glutamine. Depending on the doubling time of each cell line, 5000–40,000 cells were seeded in 96-well plates for 24 h. Cells were then treated with compounds 1 or 2 at a concentration of 10 μM and incubated for 48 h at 37 °C in a humidified atmosphere containing 5% CO2. The cells were then fixed and stained with sulforhodamine B (SRB) to determine their viability. The data were analyzed using a program called COMPARE to determine the percent growth inhibition of each compound.

NCI-H322M = conditions: Homo sapiens, Non-Small Cell Lung NCI-H322M, 48 h, read-out: Percent growth inhibition
Experimental: as §1, §2

KM12 = conditions: Homo sapiens; Colon KM12, 10 μM, 48 h; read-out: Percent growth inhibition
Experimental: as §1, §2

UACC-257 = conditions: Homo sapiens; Melanoma UACC-257, 10 μM, 48 h; read-out: Percent growth inhibition
Experimental: as §1, §2

CAKI-1 = conditions: Homo sapiens; Renal CAKI-1, 10 μM, 48 h; read-out: Percent growth inhibition
Experimental: as §1, §2

MCF7 = conditions: Homo sapiens; Breast MCF7, 10 μM, 48 h; read-out: Percent growth inhibition
Experimental: as §1, §2

SN12C = conditions: Homo sapiens, Renal SN12C, 48 h, read-out: Percent growth inhibition
Experimental: as §1, §2

HOP-92 = conditions: Homo sapiens; Non-Small Cell Lung HOP-92, 10 μM, 48 h; read-out: Percent growth inhibition
Experimental: as §1, §2

A498 = conditions: Homo sapiens; Renal A498, 10 μM, 48 h; read-out: Percent growth inhibition
Experimental: as §1, §2

SR = conditions: Homo sapiens, 48 h, Leukemia SR, read-out: Percent growth inhibition
Experimental: as §1, §2

SNB-75 = conditions: Homo sapiens; CNS SNB-75, 10 μM, 48 h; read-out: Percent growth inhibition
Experimental: as §1, §2

SF-539 = conditions: Homo sapiens; CNS SF-539, 10 μM, 48 h; read-out: Percent growth inhibition
Experimental: as §1, §2

HCT-116 = conditions: Homo sapiens, HCT-116, 48 h, Colon HCT-116, 10 μM, read-out: Percent growth inhibition
Experimental: as §1, §2

CCRF-CEM = conditions: Homo sapiens, Leukemia CCRF-CEM, 48 h, read-out: Percent growth inhibition
Experimental: as §1, §2

OVCAR-3 = conditions: Homo sapiens; Ovarian OVCAR-3, 10 μM, 48 h; read-out: Percent growth inhibition
Experimental: as §1, §2

T-47D = conditions: Homo sapiens, T47D, Breast T-47D, 48 h, read-out: Percent growth inhibition
Experimental: as §1, §2

BT-549 = conditions: Homo sapiens; Breast BT-549, 10 μM, 48 h; read-out: Percent growth inhibition
Experimental: as §1, §2

HCT-15 = conditions: Homo sapiens; Colon HCT-15, 10 μM, 48 h; read-out: Percent growth inhibition
Experimental: as §1, §2

HCC-2998 = conditions: Homo sapiens; Colon HCC-2998, 10 μM, 48 h; read-out: Percent growth inhibition
Experimental: as §1, §2

M14 = conditions: Homo sapiens; Melanoma M14, 10 μM, 48 h; read-out: Percent growth inhibition
Experimental: as §1, §2

K-562 = conditions: Homo sapiens, K562; Leukemia K-562, 10 μM, 48 h; read-out: Percent growth inhibition
Experimental: as §1, §2

HOP-62 = conditions: Homo sapiens; Non-Small Cell Lung HOP-62, 10 μM, 48 h; read-out: Percent growth inhibition
Experimental: as §1, §2

SW-620 = conditions: Homo sapiens; Colon SW-620, 10 μM, 48 h; read-out: Percent growth inhibition
Experimental: as §1, §2

OVCAR-8 = conditions: Homo sapiens; Ovarian OVCAR-8, 10 μM, 48 h; read-out: Percent growth inhibition
Experimental: as §1, §2

786-0 = conditions: Homo sapiens; Renal 786-0, 10 μM, 48 h; read-out: Percent growth inhibition
Experimental: as §1, §2

NCI/ADR-RES = conditions: Homo sapiens, Ovarian NCI/ADR-RES, 48 h, read-out: Percent growth inhibition
Experimental: as §1, §2

HT29 = conditions: Homo sapiens, HT-29, 48 h, Colon HT29, 10 μM, read-out: Percent growth inhibition
Experimental: as §1, §2

| SMILES | inhibition at 10 µM (MOLT-4) [%] | inhibition at 10 µM (NCI-H322M) [%] | inhibition at 10 µM (KM12) [%] | inhibition at 10 µM (UACC-257) [%] | inhibition at 10 µM (CAKI-1) [%] | inhibition at 10 µM (MCF7) [%] | inhibition at 10 µM (SN12C) [%] | inhibition at 10 µM (HOP-92) [%] | inhibition at 10 µM (A498) [%] | inhibition at 10 µM (SR) [%] | inhibition at 10 µM (SNB-75) [%] | inhibition at 10 µM (SF-539) [%] | inhibition at 10 µM (HCT-116) [%] | inhibition at 10 µM (CCRF-CEM) [%] | inhibition at 10 µM (OVCAR-3) [%] | inhibition at 10 µM (T-47D) [%] | inhibition at 10 µM (BT-549) [%] | inhibition at 10 µM (HCT-15) [%] | inhibition at 10 µM (HCC-2998) [%] | inhibition at 10 µM (M14) [%] | other results |
| --- | --- | --- | --- | --- | --- | --- | --- | --- | --- | --- | --- | --- | --- | --- | --- | --- | --- | --- | --- | --- | --- |
| CCn1cc(Nc2ncc3nnn(-c4ccc(C(=O)OC)cc4)c3n2)cn1 [Compound 1, Methyl 4-(5-((1-ethyl-1H-pyrazol-4-yl)amino)-3H-[1,2,3]triazolo[4,5-d]pyrimidin-3-yl)benzoate] | 21.6 | -3.7 | 7.33 | 13.6 | 1.59 | 11.6 | 1.94 | -8.76 | 10.5 | 43.4 | 23.4 | -9.47 | 42.7 | 39.5 | 8.48 | 25.8 | 24.2 | 11.2 | -3.6 | 17 | inhibition at 10 µM (K-562): 20.9%; inhibition at 10 µM (HOP-62): 21.1%; inhibition at 10 µM (SW-620): -5.07%; inhibition at 10 µM (OVCAR-8): 13.8%; inhibition at 10 µM (786-0): -6.68%; inhibition at 10 µM (NCI/ADR-RES): -8.6%; inhibition at 10 µM (HT29): 47% |
| CCOc1ccc(-n2nnc3cnc(Nc4cnn(CC)c4)nc32)cc1 [Compound 2, 3-(4-Ethoxyphenyl)-N-(1-ethyl-1H-pyrazol-4-yl)-3H-[1,2,3]triazolo[4,5-d]pyrimidin-5-amine] | 23.2 | -5.07 | 25.9 | 21.3 | 0.05 | 24.2 | 12.5 | -5.76 | 44.1 | 57.5 | 44.6 | 32 | 43.7 | 14 | 6.71 | 20.7 | 16.2 | 0.66 | -2.67 | 10.9 | inhibition at 10 µM (K-562): 17.2%; inhibition at 10 µM (HOP-62): 15.7%; inhibition at 10 µM (SW-620): -17.3%; inhibition at 10 µM (OVCAR-8): 21.2%; inhibition at 10 µM (786-0): 21.7%; inhibition at 10 µM (NCI/ADR-RES): 1.5%; inhibition at 10 µM (HT29): 39.7% |
